Test results taken from patent US5292498A, “Method of treating lung disease with uridine triphosphates” (The University of North Carolina At Chapel Hill, priority 1991, dated 1994).

Tested on: normal human nasal epithelial cells
Assay: Intracellular calcium [Ca^2+ ]i in single normal human nasal epithelial cells (Fura-2)
Format: cell-based
Method: Freshly excised human nasal epithelium from normal or cystic fibrosis subjects was grown in primary culture in F-12, hormone-supplemented medium in accordance with known procedures. See R. Wu et al., Am. Rev. Respir. Dis. 132, 311-320 (1985). For [Ca^2+ ]i measurements, cultures were grown on non-fluorescent vitrogen substrates on glass coverslips. Cultures for electrophysiologic studies were grown to confluence on permeable collagen matrix supports (CMS), allowing addition of agonists to the basolateral or apical surface of the epithelial sheet.
Primary human nasal epithelial cells grown to confluence on vitrogen coated coverslips were loaded with a final concentration of 3 μM Fura-2/AM at 37° C. for 30 minutes. The cells were then washed in NaCl Ringer and mounted in a chamber for measurements of fluorescence. To reduce the rate of leakage of Fura-2 from the cell into the extracellular space and avoid time-dependent compartmentalization of the probe, all measurements of [Ca^2+ ]i were performed at 25° C. At this temperature,no vesicular bright spots indicative of compartmentalization of the probe were observed.
Measurements of [Ca^2+ ]i in single human nasal epithelial cells were obtained with a modular microspectrofluorimeter (SPEX Industries, Inc., Edison, N.J.) attached to a Zeiss Axiovert IM 35 microscope. The system was equipped with a xenon lamp, beam splitter, two monochromators and a rotating chopper mirror that permitted excitation of cell fluorescence at alternating wavelengths of 340 and 380 nm (emission ≥450 nm). The fluorescent signal from a single cell was measured with a photometer equipped with a pinhole (spot diameter of 3-5 μm) that excluded signals from adjacent cells.
After agonist was added, the fluorescent signal was quenched by a NaCl ringer solution containing 1.5×10^-4 M digitonin and 10^-3 M MnCl2. The remaining signal at each excitation wavelength, equivalent to the background fluorescence in non loaded cells, was subtracted from data from Fura-2/AM loaded cells before the ratio (340 nm/380 nm) was taken. The 340 nm/380 nm ratio was converted to an actual [Ca^2+ ]i measurement by using the external calibration standards and the formula derived by G. Grynkiewicz et al., J. Biol. Chem. 260, 3440-3450 (1985), used with dual wavelength measurements: [Ca^2+ ]i =K [(Rx --Ro)/(Rs --Rx)], with Ro and Rs representing the ratios at 0 Ca^2+ and saturating Ca^2+, respectively. Rx represents the experimental ratio.
To investigate whether changes in [Ca^2+ ]i might be related to regulation of ion transport, receptor characterization was performed by measuring changes in [Ca^2+ ]i in response to a number of nucleotide drugs. Concentration-effect curves for agonists active at P2x, P2y subtype or UTP sensitive receptors and other purine or pyrimidine receptor agonists were generated, measuring mean change in [Ca^2+ ]i in response to agonist concentration. Data are shown in FIG. 3, which gives log concentration-effect relationships of purinergic and pyrimidinergic compounds on [Ca^2+ ]i (mean change in [Ca^2+ ]i over basal levels).

Question: How did the “[Ca^2+ ]i response in Ca^2+ -free medium” value (Ca^2+ -free medium) turn out when `Nc1ncnc2c1ncn2[C@@H]1O[C@H](COP(=O)(O)OP(=O)(O)OP(=O)(O)O)[C@@H](O)[C@H]1O` [ATP, adenosine triphosphate] was run?
Answer: initial sharp increase in [Ca^2+ ]i

Question: And the “time for [Ca^2+ ]i to return to baseline” value (Ca^2+ -free medium)?
Answer: two

Question: And the “effectiveness for raising [Ca^2+ ]i” value (concentration-effect curves, FIG. 3)?
Answer: most effective agonists

Question: What about the “[Ca^2+ ]i response” value (extracellular application, Ca^2+ -containing solution) of the same molecule?
Answer: immediate increase in [Ca^2+ ]i levels

Question: What about the “plateau phase on return to Ca^2+ -containing solution” value (return of cells to Ca^2+ -containing solution) of the same molecule?
Answer: restoration of the plateau phase
